Source: patent publication US20250304550A1, “BROMODOMAIN AND EXTRA-TERMINAL (BET) SUBFAMILY BROMODOMAIN 1 (BD1) SELECTIVE INHIBITORS AND METHODS USING SAME” (Baylor College of Medicine, priority 2022, published 2025)
One block for each molecule: values may come before it.

Legend:
NanoLuc-BET BD1 = test: NanoBRET target engagement intracellular BET bromodomain assay in HEK293 cells; type: cell-based, human; conditions: transiently transfected HEK293 cells
[1] = Metabolic stability assay in human liver microsomes; type: in vitro ADME; conditions: human, microsomes
BRD2-BD1 = BRD2-BD1 (Homo sapiens (Human), UniProt P25440); test: BromoKdELECT assay; type: binding
BRD2-BD1, sequence (P25440 74-180): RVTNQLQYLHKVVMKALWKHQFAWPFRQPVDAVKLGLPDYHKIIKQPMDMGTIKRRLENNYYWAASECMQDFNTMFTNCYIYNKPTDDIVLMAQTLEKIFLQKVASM

[2] = test system: MV4; 11 and MOLM-13 cells; test: Cell cycle analysis by flow cytometry; type: cell-based; conditions: 24 hours of treatment at the IC50
[3] = test system: MYC and GAPDH expression in MV4; 11 and MOLM-13 cells; test: Quantitative RT-PCR analysis of MYC and GAPDH expression; type: cell-based; conditions: 8 hours of treatment, both cell lines
[4] = Metabolic stability assay in mouse liver microsomes; type: in vitro ADME; conditions: mouse, microsomes
NanoLuc-BRDT-BD2 = NanoLuc-BRDT-BD2 (Homo sapiens (Human), UniProt Q58F21); test: NanoBRET target engagement intracellular BET bromodomain assay in HEK293 cells; type: cell-based; conditions: transiently transfected HEK293 cells
NanoLuc-BRD4-BD2 = NanoLuc-BRD4-BD2 (Homo sapiens (Human), UniProt O60885); test: as above; type: cell-based; conditions: transiently transfected HEK293 cells
BRD4-BD1 [5] = biological target: T1, BRD4-BD1 (Homo sapiens (Human), UniProt O60885); test: BromoKdELECT assay; type: binding
BRDT-BD1 [6] = biological target: T2, BRDT-BD1 (Homo sapiens (Human), UniProt Q58F21); test: AlphaScreen bromodomain proximity assay (biotinylated JQ1 competition); type: binding; conditions: for BRDT-BD1 vs. BRDT-BD2 fold: BD1 selectivity, AlphaScreen IC50 ratio
BRD3-BD1 = BRD3-BD1 (Homo sapiens (Human), UniProt Q15059); test: BromoKdELECT assay; type: binding
BRD3-BD1, sequence (Q15059 34-140): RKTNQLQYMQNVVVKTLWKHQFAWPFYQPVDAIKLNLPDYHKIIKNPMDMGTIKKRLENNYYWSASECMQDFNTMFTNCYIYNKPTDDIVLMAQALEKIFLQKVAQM

BRDT-BD1 [7] = biological target: T2, BRDT-BD1; test: BromoKdELECT assay; type: binding
[8] = test system: MV4; 11 and MOLM-13 cells; test: Apoptosis detection (Annexin V) by flow cytometry; type: cell-based; conditions: 72 hours of treatment
AML cell line MV4; 11 = test: Cell viability testing (CellTiterGlo, 72 hours); type: cell-based; conditions: Homo sapiens, '—' = not efficient
BRD4-BD2 = BRD4-BD2 (Homo sapiens (Human), UniProt O60885); test: AlphaScreen bromodomain proximity assay (biotinylated JQ1 competition); type: binding; conditions: in Table 4 '—' = not efficient
BRD4-BD1 [9] = biological target: T1, BRD4-BD1; test: as above; type: binding
BRDT-BD2 = BRDT-BD2 (Homo sapiens (Human), UniProt Q58F21); test: as above; type: binding; conditions: in Table 4 '—' = not efficient

half-life at 2 μM [1]: 33 min
BRD2-BD1 selectivity over BRD2-BD2 (BRD2-BD1; BromoKdELECT): 420 fold
IC50 (BRD2-BD1; printed as BRD2-BDT1): 0.26 nM
metabolic stability in mouse liver microsomes (in words) [4]: labile
effect against BRDT-BD2 in NanoBRET (in words) (NanoLuc-BRDT-BD2): no effect
effect against BRD4-BD2 in NanoBRET (in words) (NanoLuc-BRD4-BD2): no effect
IC50 (BRD4-BD1 [5]): 0.29 nM
IC50 (BRDT-BD1 [6]; AlphaScreen): 2.1 nM
fold more potent than (+)-JQ1 for BRDT-BD1 (BRDT-BD1 [6]; AlphaScreen): 22 fold
BRDT-BD1 vs. BRDT-BD2 fold (BRDT-BD1 [6]): ~5000 fold
IC50 (BRD3-BD1): 0.13 nM
BRD3-BD1 selectivity over BRD3-BD2 (BRD3-BD1; BromoKdELECT): 5920 fold
IC50 (BRDT-BD1 [7]): 0.22 nM
SMILES: CNC(=O)[C@@H](CC1CCN(C(=O)Cc2ccc3[nH]c(=O)cc(C)c3c2)CC1)NC(=O)c1ccc(-c2ccc(C)cc2C)cn1 [Compound 2, (R)-5-(2,4-dimethylphenyl)-N-(3-(1-(2-(4-methyl-2-oxo-1,2-dihydroquinolin-6-yl)acetyl)piperidin-4-yl)-1-(methylamino)-1-oxopropan-2-yl)picolinamide]
inhibition of tracer binding, BD1 vs BD2 (in words) (NanoLuc-BET BD1): more potent and selective for NanoLuc-BET BD1
effect on the cell cycle (in words) [2]: induced Gi arrest
MYC expression (in words) [3]: suppressed
effects on GAPDH expression (in words) [3]: no/minimal effects
apoptosis, Annexin V+ cells (in words) [8]: induced

EC50 (AML cell line MV4; 11): 143 nM
IC50 (BRD4-BD2): 16.7 µM
IC50 (BRDT-BD1 [6]; AlphaScreen): 5.4 nM
BRDT-BD1 vs. BRDT-BD2 fold (BRDT-BD1 [6]): 3,875 fold
IC50 (BRD4-BD1 [9]; AlphaScreen): 7.1 nM
fold loss of selectivity over BRD4-BD2 (BRD4-BD1 [9]; AlphaScreen): 1.6 fold
BRD4-BD1 vs. BRD4-BD2 fold (BRD4-BD1 [9]; BD1 selectivity, AlphaScreen IC50 ratio): 2,352 fold
IC50 (BRDT-BD2): 20.9 µM
SMILES: CNC(=O)[C@@H](CC1CCN(C(=O)Cc2ccc3[nH]c(=O)ccc3c2)CC1)NC(=O)c1ccc(-c2ccccc2)cn1 [Compound 10, (R)-N-(1-(methylamino)-1-oxo-3-(1-(2-(2-oxo-1,2-dihydroquinolin-6-yl)acetyl)piperidin-4-yl)propan-2-yl)-5-phenylpicolinamide]
